Tests used:
[1] = tested on: Cellular and Fluid Influx to Rat Pleural Cavity; experiment: Inhibition of cellular and fluid influx to rat pleural cavity (antiinflammatory activity assay); type: in vivo; conditions: 25 mg 1 kg p.o., rats
Protocol: Compounds 3.0 of this invention are useful for the treatment of inflammation; thus, they are useful for the treatment of arthritus, bursitis, tendonitis, gout, and other inflammatory conditions. […] Protection against cellular and fluid influx strongly indicates antiinflammatory properties. D. Antiinflammatory Activity Assay Inhibition of Cellular and Fluid Influx to Rat Pleural Cavity. Groups of 4 male rats are injected in the penile vein with antigen (1 mg BSA in 0.2 mL of saline per rat) and 0.5 hour later injected in the pleural cavity with antibody (1.0 mg antibody protein in the IgG fraction of rabbit anti-BSA in 0.2 mL). […] After 4 hours the animals are killed with CO2, and the pleural cavities are opened and the exudate is drained into a graduated conical glass centrifuge tube containing indomethacin (1.8 ug) and nordihydroguaiaretic acid (NDGA) (15 ug) to block ex vivo metabolite synthesis. The volume of the exudate is measured. The cavity is then washed out with saline-EDTA to achieve a final volume of 5.0 mL. The number of cells is determined in a Coulter Counter. The cells are spun-down (1000 x g) and the exudate supernatant is added to 4 volumes of 95% ethanol and samples are kept on ice for 30 minutes. After removal of the protein precipitate (2,500 x g) the ethanol extract of the exudate is dried under N2 and then is stored at -20°C. […]

PAF = PAF antagonism in vitro assay: PAF-induced platelet aggregation in platelet-rich plasma; type: cell-based; conditions: PAF 1-5 X 10^-8M, human PRP
Protocol: Preparation of platelet-rich plasma (PRP): Human blood (50 ml) is collected from healthy male donors. The blood is mixed with an anticoagulant solution (5 ml) containing sodium citrate (3.8%) and dextrose (2%). Blood is centrifuged at 110 X g for 15 min. and the supernatant PRP is carefully transferred into a polypropylene tube. Platelet-poor-plasma (PPP) is prepared by centrifuging PRP at 12,000 X g for 2 min. in a Beckman Microfuge B. PRP is used within 3 hours of drawing the blood.
Platelet Aggregation Assay: When an aggregating agent such as PAF is added to PRP, platelets aggregate. An aggregometer quantifies this aggregation by measuring light (infra-red) transmission through PRP and comparing it to transmission through PPP. The aggregation assays are performed using a dual-channel aggregometer (Model 440, Chrono-Log Corp., Havertown, PA). PRP (0.45 ml) in aggregometer curettes is continually stirred (37°C). Solutions of test compounds or vehicle are added to the PRP, and, after incubation for 2 min., 10-15 µl aliquots of pAF solution are added so as to achieve a final concentration of 1-5 X 10^-8M. Incubations are continued until the increase in light transmission reaches a maximum (usually about 2 min). Values for inhibition are calculated by comparing maximal aggregation obtained in the absence and the presence of the compound. For each experiment, a standard PAF antagonist, such as alprazolam, is used as a positive internal control. The inhibitory concentration is the concentration of compound in micromoles at which the indicated % inhibition of the aggregation is found, as measured by the light transmission through each sample of PRP as compared to that through each sample of PPP.

Structure (SMILES)	reduced cellular influx to the pleural cavity [1]	reduced fluid influx to the pleural cavity [1]	Inhibition (%) (PAF; Dose 12 μm)	Inhibition (%) (PAF; Dose 25 μm)	Inhibition (%) (PAF; Dose 50 μm)
O=C1c2ccccc2CCc2c1[nH]c1ccccc21 [Compound E, 11,12-Dihydrobenzo[5,6]cyclohepta[1,2-b]indol-6(5H)-one]	65%	25%	–	–	–
CC(=O)N1CCC(=C2c3ccccc3CCc3sc(C)nc32)CC1 [compound 4]	–	–	29%	71%	100%
COc1ccc(Cn2c(C)nc3c2CCc2ccccc2C3=C2CCN(C(C)=O)CC2)cc1 [compound 5]	–	–	–	–	67%

From patent EP0339978B1, “Fused polycyclic compounds, compositions, methods of manufacture, and their use as PAF antagonists, antihistamines and/or antiinflammatory agents” (SCHERING CORPORATION, priority 1988, dated 1989)
